Assay: Liver microsomal stability, human
Conditions: for microsomal CLint / half-life / half-life at 1 μM: microsomes
Protocol: The reaction mixture, minus cofactors, was prepared as described below. The test article was added into the reaction mixture at a final concentration of 1 μM. […] An aliquot of the reaction mixture (without cofactor) was equilibrated in a shaking water bath at 37° C. for 3 minutes. The reaction was initiated by the addition of cofactor, and the mixture was incubated in a shaking water bath at 37° C. Aliquots (100 μL) were withdrawn at 0, 10, 20, 30, and 60 minutes. All samples were immediately combined with 400 μL of ice-cold 50/50 acetonitrile/H2O containing 0.1% formic acid and internal standard to terminate the reaction. The samples were then mixed and centrifuged to precipitate proteins. Calibration standards were prepared in matched matrix. All samples and standards were assayed by LC-MS/MS using electrospray ionization for both the dosed prodrug I-9 and the expected drug (PEA). Analytical conditions are outlined in Appendix 4-1. The test article concentration at each time point was compared to the test article concentration at time 0 to determine the percent remaining at each time point. Half-lives were calculated using GraphPad software, fitting to a single-phase exponential decay equation.
Reaction mixture, minus cofactors, was prepared as described below. Test article was added into the reaction mixture at a final concentration of 1 μM. […] An aliquot of the reaction mixture (without cofactor) was equilibrated in a shaking water bath at 37° C. for 3 minutes. The reaction was initiated by the addition of cofactor, and the mixture was incubated in a shaking water bath at 37° C. Aliquots (100 μL) were withdrawn at 0, 10, 20, 30, and 60 minutes. Test article samples were immediately combined with 300 μL of ice-cold acetonitrile containing 1% formic acid. Control samples were immediately combined with 400 μL of ice-cold 50/50 acetonitrile (ACN)/dH2O containing 0.1% formic acid and internal standard to terminate the reaction. Samples were then mixed and centrifuged to precipitate proteins. Calibration standards were prepared in matched matrix. Samples and standards were assayed by LC-MS/MS using electrospray ionization for both dosed prodrug and expected drug (PEA). Analytical conditions are outlined in Appendix 8-1. Test article concentration at each time point was compared to test article concentration at time 0 to determine the percent remaining at each time point. Half-lives were calculated using GraphPad software, fitting to a single-phase exponential decay equation.
Reaction mixture, minus cofactors, was prepared as described below. Test article was added into the reaction mixture at a final concentration of 1 μM. […] An aliquot of the reaction mixture (without cofactor) was equilibrated in a shaking water bath at 37° C. for 5 minutes. Reaction was initiated by the addition of cofactor, and the mixture was incubated in a shaking water bath at 37° C. Aliquots (100 μL) were withdrawn at 0, 10, 20, 30, and 60 minutes. Test article samples were immediately combined with 300 μL of ice-cold acetonitrile containing 1% formic acid. Control samples were immediately combined with 400 μL of ice-cold 50/50 acetonitrile (ACN)/dH2O containing 0.1% formic acid and internal standard to terminate the reaction. Samples were then mixed and centrifuged to precipitate proteins. Calibration standards were prepared in matched matrix. Samples and standards were assayed by LC-MS/MS using electrospray ionization for both the dosed prodrug and the expected drug (PEA). Analytical conditions are outlined in Appendix 10-1. Test article concentration at each time point was compared to the test article concentration at time 0 to determine the percent remaining at each time point. Half-lives were calculated using GraphPad software, fitting to a single-phase exponential decay equation.
Reaction mixture, minus cofactors, was prepared as described below. Test article was added into the reaction mixture at a final concentration of 1 μM.

C[C@]12CC[C@H]3[C@@H](CCC4=CC(=O)CC[C@@]43C)[C@@H]1CC[C@@H]2O [Testosterone, testosterone, reference compound]
Clint, control compound (Example 4 control run): 0.0792 ml/min/mg protein | Half-life, control compound (Example 4 control run): 17 min | microsomal CLint (both, human, CLint, Control Compound, Human liver microsomes): 66.7 µL/min/mg | microsomal CLint (both, human, CLint, Control compound, Human liver microsomes): 50.5 µL/min/mg | microsomal CLint (both, human, CLint, Human liver microsomes, control compound): 66.7 µL/min/mg | microsomal CLint (both, human, CLint, control compound, human liver microsomes): 151 µL/min/mg | half-life (both, human, Control Compound, Human liver microsomes): 21 min | half-life (both, human, Control compound, Human liver microsomes): 27 min | half-life at 1 μM (both, human, Human liver microsomes): 21 min | microsomal CLint (male, Sprague-Dawley, CLint, Control Compound, Rat liver microsomes): 1010 µL/min/mg | microsomal CLint (male, Sprague-Dawley, CLint, Control compound, Rat liver microsomes): 760 µL/min/mg | microsomal CLint (male, Sprague-Dawley, CLint, Rat liver microsomes, control compound): 1010 µL/min/mg | microsomal CLint (male, Sprague-Dawley, CLint, control compound, rat liver microsomes): 911 µL/min/mg | microsomal CLint (male, Sprague-Dawley, Clint, control compound, Example 4 control run): 1030 µL/min/mg | half-life (male, Sprague-Dawley, Control Compound, Rat liver microsomes): 1.4 min | half-life (male, Sprague-Dawley, Control compound, Rat liver microsomes): 1.8 min | half-life at 1 μM (male, Sprague-Dawley, Rat liver microsomes): 1.4 min | half-life (male, Sprague-Dawley, control compound, Example 4 control run): 1.4 min | half-life (male, Sprague-Dawley, control compound, rat liver microsomes): 1.5 min

From patent publication US11547681B2, “N-acylethanolamide derivatives and uses thereof” (ELIEM THERAPEUTICS, INC., priority 2016, dated 2023)
